In patent US20240368174A1, “Antiviral Heterocyclic Compounds” (Enanta Pharmaceuticals, Inc., priority 2023, published 2024):

System: genotype A, “Long” strain RSV
Assay: RSV-A assay (CPE, ATPlite readout in Hep-2 cells)
Type: cell-based, Human respiratory syncytial virus
Settings: activity class
From the text: Hep-2 cells, (originally derived from tumors grown in irradiated-cortisonised weanling rats that had been injected with epidermoid carcinoma tissue from the larynx of a person, but later found to be indistinguishable from HeLa cells by PCR DNA analysis), were used for the culturing of genotype A, “Long” strain RSV. Flasks were inoculated with RSV and viral stocks were collected once cytopathic effect (CPE) was greater than 90%. Viral stocks in 25% sucrose media were snap frozen using liquid nitrogen to increase viral stability. Viral stock titers were quantified by tissue culture infectious dose 50% (TCID50) using 8,000 cells per well and 3-fold viral dilutions across a 96-well plate, cultured for 4 days. Viral stock titers were also quantified by a plaque forming unit assay, as described elsewhere.
Following extensive parameter testing, the final assay is run as follows: Hep-2 cells are seeded into the inner 60 wells of a 96-well plate at 8,000 cells per well in a volume of 50 μL using Growth Media (DMEM without phenol red, 1% L-Glut, 1% Penn/Strep, 1% nonessential amino acids, 10% heat-inactivated FBS). 2-fold serial dilutions of control and test compounds are added to the wells in duplicate in a total volume of 25 μL. Viral stock is then added to the wells at a multiplicity of infection (MOI) of 0.1 in a volume of 25 μL, bringing the total volume of each well to 100 μL. The MOI is calculated using the PFU/mL, or TCID50 if unavailable. Each 96-well plate has a control column of 6 wells with cells and virus but no compound (negative control, max CPE), a column with cells but no compound or virus (positive control, minimum CPE), and a column with no cells or virus or compound (background plate/reagent control). The control wells with cells but no virus are given an additional 25 μL of growth media containing an equal quantity of sucrose as those wells receiving the viral stock in order to keep consistent in media and volume conditions. The outer wells of the plate are filled with 125 μL of moat media (DMEM, 1% Penn/Strep) to act as a thermal and evaporative moat around the test wells. Following a 5-day incubation period, the plates are read using ATPlite (50 uL added per well), which quantifies the amount of ATP (a measure of cell health) present in each well. Assay plates are read using the Envision luminometer. […] EC50 ranges are as follows: A<0.2 μM; B>0.2 μM.

[1] = human respiratory syncytial virus

Structure (SMILES) | EC50 [1] [nM] | EC50 [nM]
COc1cc(C(=O)NC[C@](O)(c2cc3c(c(-n4ccc5c(F)cccc54)n2)OC[C@]3(C)C(N)=O)C(F)(F)F)cc2cn(C(F)F)nc12 [Example 684] | < 200 | 
COc1cc(C(=O)NC[C@](O)(c2cc3c(c(-n4ccc5c(F)cccc54)n2)OC[C@]3(C)C(N)=O)C(F)(F)F)cc2cc(C3CC3)nn12 [Example 686] | < 200 | 
COc1cc(C(=O)NC[C@](O)(c2cc3c(c(-n4ccc5ccccc54)n2)OC[C@]3(C)C(N)=O)C2(F)CC2)cc2cn(C3CC3)nc12 [Example 716] | < 200 | 
COc1cc(C(=O)NC[C@](O)(c2cc3c(c(-c4ccnc(Cl)c4Cl)n2)OC[C@]3(C)C(N)=O)C2CC2)cc2cn(C(F)F)nc12 [Example 732] |  | < 200
COc1cc(C(=O)NC[C@@](O)(c2cc3c(c(-c4ccnc(Cl)c4Cl)n2)OC[C@]3(C)C(N)=O)C2CC2)cc2cn(C(F)F)nc12 [Example 733] | < 200 | 
COc1cc(C(=O)NC[C@](O)(c2cc3c(c(-c4cncc(Cl)c4Cl)n2)OC[C@]3(C)C(N)=O)C2CC2)cc2cn(C3CC3)nc12 [Example 740] | < 200 | 
COc1cc(C(=O)NC[C@](O)(c2cc3c(c(-n4ccc5ccccc54)n2)OC[C@]3(C)C(N)=O)C2CC2)cc2cn(C3(F)CC3)nc12 [Example 741] | < 200 | 
COc1cc(C(=O)NC[C@](O)(c2cc3c(c(-n4ccc5ccccc54)n2)OC[C@]3(C)C(N)=O)C2CC2)cc2oc(C3CC3)nc12 [Example 748] | < 200 | 
COc1cc(C(=O)NC[C@](O)(c2cc3c(c(-c4ccnc(C)c4Cl)n2)OC[C@]3(C)C(N)=O)C2CC2)cc2cn(C(F)F)nc12 [Example 753] | < 200 | 
COc1cc(C(=O)NC[C@](O)(c2cc3c(c(-c4ccnc(C)c4Cl)n2)OC[C@]3(C)C(N)=O)C2CC2)cc2cn(C3(F)CC3)nc12 [Example 754] | < 200 | 
COc1cc(C(=O)NC[C@](O)(c2cc3c(c(-c4ccnc(C)c4Cl)n2)OC[C@]3(C)C(N)=O)C2CC2)cc2oc(C3CC3)nc12 [Example 755] | < 200 | 
COc1cc(C(=O)NC[C@](O)(c2cc3c(c(-c4cncc(Cl)c4Cl)n2)OC[C@]3(C)C(N)=O)C2CC2)cc2cn(C(F)F)nc12 [Example 772] | < 200 | 
COc1cc(C(=O)NC[C@](O)(c2cc3c(c(-c4cncc(Cl)c4Cl)n2)OC[C@]3(C)C(N)=O)C2CC2)cc2cn(C3(F)CC3)nc12 [Example 773] | < 200 | 
COc1cc(C(=O)NC[C@](O)(c2cc3c(c(-c4cncc(Cl)c4Cl)n2)OC[C@]3(C)C(N)=O)C2CC2)cc2oc(C3CC3)nc12 [Example 774] | < 200 | 
COc1cc(C(=O)NC[C@](O)(c2cc3c(c(-c4ccnc(C(F)(F)F)c4Cl)n2)OC[C@]3(C)C(N)=O)C2(F)CC2)cc2cn(C3CC3)nc12 [Example 784] | < 200 | 
COc1cc(C(=O)NC[C@](O)(c2cc3c(c(-n4ncc5c(F)cccc54)n2)OC[C@]3(C)C(N)=O)C(F)(F)F)cc2cn(C3CC3)nc12 [Example 830] | < 200 | 
COc1cc(C(=O)NC[C@](O)(c2cc3c(c(-n4ccc5ccc(F)cc54)n2)OC[C@]3(C)C(N)=O)C(F)(F)F)cc2cn(C3CC3)nc12 [Example 853] | < 200 | 
COc1cc(C(=O)NC[C@](O)(c2cc3c(c(-n4ccc5cccc(F)c54)n2)OC[C@]3(C)C(N)=O)C(F)(F)F)cc2cn(C3CC3)nc12 [Example 854] | < 200 | 
COc1cc(C(=O)NC[C@](O)(c2cc3c(c(-n4ccc5c6c(ccc54)OC(F)(F)O6)n2)OC[C@]3(C)C(N)=O)C2CC2)cc2cn(C3CC3)nc12 [Example 855] | < 200 | 
COc1cc(C(=O)NC[C@@](O)(c2ccnc(N(C)C)c2)c2cc3c(c(-c4cc(Cl)c(F)cc4F)n2)OC[C@]3(C)C(N)=O)cc2cn(C3CC3)nc12 [Example 884] | < 200 | 
